# Assay results: the supplement of paper PMC10307832
# Experiments:
# BI-D1870 = compound: CC(C)CCN1c2nc(Nc3cc(F)c(O)c(F)c3)ncc2N(C)C(=O)C1C [BI-D1870]; experiment: relative viability (nuclei count vs DMSO), 5 days (fraction); higher = more cells survive
# In short: (§1)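 After an overnight hold at 37 °C, lung cancer cell lines in 1536-well plates were pinned with five library-drug doses (not always all listed), each √10 from the next, on vehicle-anchored plates. The cells stayed 5 days without fresh medium, then a one-step fix, permeabilisation and Hoechst stain preceded 4× imaging and MetaXpress nuclear counts. A plate passed only with control CV under 25% and at least one doubling. Viability is the median, over plates, of treated-well nuclei relative to vehicle-well nuclei.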
# Zebularine = compound: O=c1ncccn1[C@@H]1O[C@H](CO)[C@@H](O)[C@H]1O [Zebularine]; experiment: as above
# In short: as §1
Cell Line,relative viability (BI-D1870; 0.04 µM),relative viability (BI-D1870; 0.1265 µM),relative viability (BI-D1870; 0.4 µM),relative viability (BI-D1870; 1.265 µM),relative viability (BI-D1870; 4 µM),relative viability (Zebularine; 1 µM),relative viability (Zebularine; 3.162 µM),relative viability (Zebularine; 10 µM),relative viability (Zebularine; 31.62 µM),relative viability (Zebularine; 100 µM)
NCI-H1734,1.02,0.922,0.978,0.987,0.815,1.02,0.97,0.771,0.579,0.289
NCI-H1755,1.03,1.01,1.03,1.07,1.01,1.12,0.981,1.02,1.04,0.717
NCI-H1792,1,0.981,0.828,1.15,0.613,1.1,0.925,0.431,0.449,0.277
NCI-H1793,1.06,0.803,0.757,1.19,0.801,1.16,1,0.442,0.67,0.237
NCI-H1915,1.09,0.921,0.969,0.988,0.763,1.04,0.932,0.821,1.08,1.03
NCI-H1944,1.12,0.919,0.907,1.03,0.941,0.995,1.02,0.788,0.947,0.718
NCI-H1975,1.15,0.904,0.99,0.914,0.851,1,0.859,0.519,0.468,0.258
NCI-H1993,1.03,0.876,0.827,1.15,0.702,1.18,0.945,0.736,0.963,0.774
NCI-H2009,1.11,0.967,1.02,0.858,0.513,1.05,0.987,0.793,0.704,0.358
NCI-H2023,1,0.846,0.88,0.988,0.701,1.17,1,0.724,0.613,0.287
NCI-H2085,1.06,0.95,1.01,0.984,0.746,1,0.949,0.829,0.972,0.662
NCI-H2087,1.13,0.977,1.15,1.21,0.78,1.04,0.949,0.747,0.894,0.381
NCI-H2126,1.05,0.889,0.981,1,0.854,1.06,0.884,0.879,0.927,0.648
NCI-H2170,1.06,0.925,0.961,0.949,0.843,1.1,1.01,0.933,0.975,0.693
NCI-H2228,0.999,0.82,0.845,1.21,0.702,1.17,1.08,0.782,0.8,0.486
NCI-H2342,0.983,0.919,1,1.09,1.15,1.01,0.953,0.757,0.984,0.853
NCI-H2347,1.14,1.02,0.964,1.06,0.894,1.11,1.05,0.753,0.583,0.489
NCI-H2405,1.07,0.985,1.03,1.07,0.909,1.02,0.992,0.871,0.968,0.726
NCI-H3122,1.03,0.927,0.951,1.02,0.903,1.03,0.987,0.875,1.01,1.04
PC-3 [JPC-3],1.05,1.02,0.962,1.1,0.951,1.07,1.01,0.711,0.868,0.76
PC-14,1.09,0.943,0.97,1.08,0.767,1.18,0.694,0.19,0.138,0.109
RERF-LC-KJ,1.01,0.908,0.954,1.02,0.814,1.11,1.03,0.859,1.01,0.994
SK-LU-1,1.07,0.91,0.972,0.997,0.669,1.07,0.989,0.626,0.739,0.544
SK-MES-1,1.05,0.911,0.892,0.829,0.617,1.11,1.06,0.704,0.673,0.286
SW 900,1.03,0.95,0.864,1.02,0.894,1.04,0.839,0.661,0.843,0.651
SW 1573,1.14,0.896,0.968,0.857,0.61,1.04,0.897,0.721,1.01,0.77
